{
  "source": "patent US11446516B2",
  "about": "“Methods of increasing response to cancer radiation therapy” (THE TRUSTEES OF THE UNIVERSITY OF PENNSYLVANIA, priority 2013, dated 2022)",
  "molecules": {"B1": {"name": "IFN-γ: recombinant interferon-gamma (SEQ ID NO: 5) (protein)", "chain": "QDPYVKEAENLKKYFNAGHSDVADNGTLFLGILKNWKEESDRKIMQSQIVSFYFKLFKNFKDDQSIQKSVETIKEDMNVKFFNSNKKKRDDFEKLTNYSVTDLNVQRKAIHELIQVMAELSPAAKTGKRKRSQ", "modifications": "IFN-gamma"}},
  "key": {"[1]": {"tested_on": "Akt, MAPK, GSK3-β, snail, slug, KLF4 in SK-BR-3 cells", "assay": "Western blot of erbB downstream signaling and Snail/Slug, SK-BR-3", "type": "cell-based, human"}, "[2]": {"tested_on": "H2N113 tumors", "type": "in vivo"}, "[3]": {"tested_on": "BT-474 cells", "assay": "MTT cell viability assay, BT-474", "type": "cell-based", "conditions": "FIG. 43, FIG. 48"}, "[4]": {"tested_on": "Akt, MAPK, snail in MDA-MB-453 cells", "assay": "Western blot of signaling and snail, MDA-MB-453", "type": "cell-based", "conditions": "24 hours (FIG. 20B)"}, "[5]": {"tested_on": "MCF10A cells", "assay": "MTT cell viability assay, MCF10A", "type": "cell-based", "conditions": "8 days"}, "[6]": {"tested_on": "MDSC", "assay": "In vitro MDSC migration assay (Transwell, H2N113 conditioned medium)", "type": "cell-based, mouse", "conditions": "H2N113 treated 3 days (FIG. 9)"}, "[7]": {"tested_on": "PD-L1", "assay": "PD-L1 expression in treated tumors", "type": "in vivo, mouse", "conditions": "FIG. 60A", "procedure": "FIG. 60A-FIG. 60C. PD-L1 expression is increased in tumors treated with IFN-γ. FIG. 60A—Western blotting was performed with anti-PD-L1 antibody with the tumors from each indicated group of mice after treatment in the same way as FIG. 59A. FIG. 60B—FACS analysis of PD-L1 expression in tumor cells from control IgG and 7.16.4+IFN-γ treated mice. Tumor cells are gated as CD45-large size cells which we confirmed most of them are tumor cells by 7.16.4 antibody. **P<0.02. FIG. 60C—Administration of anti-PD-L1 antibody with the ordered therapy. Mice were treated with control PBS, 7.16.4 (1.5 mg/kg, three times per week) and anti-PDL1 (5 mg/kg, twice per week), 7.16.4 and IFN-γ ([…], three times per week), or the combination of IFN-γ, 7.16.4 and anti-PD-L1. Data represent mean+SEM.\nThis is also consistent with why IFN-γ alone is not useful for cancer therapy (Zaidi and Merlino, 2011). […] It is possible that PD-L1 acts as a negative immune regulator induced by IFN-γ treatment alone. […] To determine if PD-L1 can be further targeted for this ordered therapy, we used anti-PD-L1 antibody along with 7.16.4 and IFN-γ."}, "[8]": {"tested_on": "class I and class II MHC antigens in SKBR3 cells", "assay": "MHC expression in SKBR3 cells by FACS", "type": "cell-based, human", "conditions": "FIG. 4"}, "[9]": {"tested_on": "H2N113 (IFNγR KD) tumors", "assay": "Implanted H2N113 (IFNγR KD) tumor growth in MMTV-neu mice", "type": "in vivo, mouse", "conditions": "suboptimal 7.16.4 1.5 mg/kg; IFN-γ 5×10^5 IU/kg (FIG. 33)"}, "[10]": {"tested_on": "MDA-MB-231 cells", "assay": "MTT cell viability assay, MDA-MB-231", "type": "cell-based", "conditions": "FIG. 43 / FIG. 55C"}, "[11]": {"tested_on": "SK-BR-3 cells", "assay": "Soft agar growth (foci formation) assay, SK-BR-3", "type": "cell-based, human", "conditions": "14 days in soft agar, ImageJ"}, "[12]": {"tested_on": "H2N113 cells", "assay": "Cytotoxicity assay of spleen CD8+ T cells from treated mice", "type": "in vivo, mouse", "conditions": "suboptimal mAb and IFN-γ (FIG. 52)"}, "[13]": {"tested_on": "H2N113 (IFNγR KD) cells", "assay": "IFN-γ response of H2N113 (IFNγR KD) cells in vitro", "type": "cell-based, mouse"}, "[14]": {"conditions": "inhibitor added during final 8 hours of two-day 4D5 and IFN-γ treatment"}},
  "note": "Entries after “also recorded” stand apart in the source; their conditions may differ. Where two headings read alike, the source gives them in different places. Where a SMILES comes first, the peptide text is derived from it. The star is where a group is joined. Cbz = O=C(OCc1ccccc1)*",
  "data": [
    {"molecule": "CC(C)C[C@@H](C=O)NC(=O)[C@H](CC(C)C)NC(=O)[C@H](CC(C)C)NC(=O)OCc1ccccc1", "note": "[MG-132] (Cbz-Leu-Leu-Leu-aldehyde)", "values": [
      {"measurement": "slug content under 4D5 and IFN-γ co-treatment", "setting": "[1]; [14]", "value": "no change in slug content"},
      {"measurement": "snail content under 4D5 and IFN-γ co-treatment", "setting": "[1]; [14]", "value": "inhibited the co-treatment-mediated reduction of snail in a dose-dependent manner"}
    ]},
    {"molecule": "CCN(CC)CCCC(C)Nc1ccnc2cc(Cl)ccc12", "note": "(stereo not shown) [chloroquine]", "values": [
      {"measurement": "snail content under 4D5 and IFN-γ co-treatment", "setting": "[1]", "value": "increased snail content but was unable to rescue"}
    ]},
    {"molecule": "IFNα", "values": [
      {"measurement": "anti-tumor activity of IFNα on its own", "setting": "[2]; FIG. 7", "value": "appears to have anti-tumor activity on its own"},
      {"measurement": "enhancement of mAb 7.16.4 activity to suppress tumor growth", "setting": "[2]; IFNα in combination with mAb 7.16.4 (FIG. 7)", "value": "could not enhance mAb 7.16.4 activity"}
    ]},
    {"molecule": "O.O=C(O)C(F)(F)F.O=c1[nH]c2ccccc2n1C1CCN(Cc2ccc(-c3nc4cc5[nH]cnc5cc4nc3-c3ccccc3)cc2)CC1", "note": "[Akt1/2 inhibitor]", "values": [
      {"measurement": "snail protein level", "setting": "[1]; Western blot", "value": "dose-dependent decrease in snail content"}
    ]},
    {"molecule": "CC/C(=C(\\c1ccc(O)cc1)c1ccc(OCCN(C)C)cc1)c1ccccc1", "note": "[4-OH tamoxifen]", "values": [
      {"measurement": "cell viability", "setting": "[3]", "value": "reduced viability in the cIgG-treated cells; also recorded: complemented 4D5 treatment; also recorded: did not further sensitize the cells to IFN-γ in combination with 4D5"}
    ]},
    {"molecule": "Cc1c[nH]c(-c2cnc(NCCNc3ccc(C#N)cn3)nc2-c2ccc(Cl)cc2Cl)n1", "note": "[CHIR99021]", "values": [
      {"measurement": "slug content under 4D5 and IFN-γ co-treatment", "setting": "[1]; [14]", "value": "no change in slug content"},
      {"measurement": "snail content under 4D5 and IFN-γ co-treatment", "setting": "[1]; [14]", "value": "dose-dependent rescue of snail"}
    ]},
    {"molecule": "CS(=O)(=O)CCNCc1ccc(-c2ccc3ncnc(Nc4ccc(OCc5cccc(F)c5)c(Cl)c4)c3c2)o1", "note": "[lapatinib, Lapatinib]", "values": [
      {"measurement": "Akt activity", "setting": "[4]", "value": "diminished Akt activity in both cell lines"},
      {"measurement": "snail protein level", "setting": "[4]", "value": "snail is reduced upon lapatinib treatment"},
      {"measurement": "Akt pathway activity", "setting": "[1]; 24 hours (FIG. 20A, 20B)", "value": "inactivated; also recorded: diminished Akt activity in both cell lines"},
      {"measurement": "slug protein level", "setting": "[1]; Western blot", "value": "not slug"},
      {"measurement": "snail protein level", "setting": "[1]; Western blot", "value": "dose-dependent reduction in snail"}
    ]},
    {"molecule": "B1", "values": [
      {"measurement": "cell viability", "setting": "[5]", "value": "minimal changes to their viability"},
      {"measurement": "MDSC migration induced by H2N113 conditioned medium", "setting": "[6]", "value": "no appreciable effects"},
      {"measurement": "PD-L1 expression in tumor tissues", "setting": "[7]", "value": "dramatically induced PD-L1 expression"},
      {"measurement": "class II MHC antigen expression", "setting": "[8]", "value": "no effect"},
      {"measurement": "tumor volumes", "setting": "[2]; BALB/c mice, 7.16.4 1.5 mg/kg, IFN-γ 5×10^5 IU/kg (FIG. 26)", "value": "demonstrable effect"},
      {"measurement": "tumor growth", "setting": "[2]; MMTV-neu mice, 7.16.4 1.5 mg/kg twice per week, IFN-γ 5×10^5 IU/kg three times per week (FIG. 1), 1.5 mg/kg", "value": "aggressive tumor growth; also recorded: failed to significantly inhibit tumor growth"},
      {"measurement": "GSK3-β activation", "setting": "[1]; Western blot (FIG. 21A)", "value": "unable to do so"},
      {"measurement": "tumor growth", "setting": "[9]", "value": "no effect on its own"},
      {"measurement": "cell viability", "setting": "[10]", "value": "did respond to IFN-γ alone"},
      {"measurement": "percentage of foci greater than 20 pixels", "setting": "[11]", "value": "52±8", "unit": "%"},
      {"measurement": "percentage of foci less than 20 pixels", "setting": "[11]", "value": "48±8", "unit": "%"},
      {"measurement": "effector CD8+ T cell activity against H2N113 cells", "setting": "[12]", "value": "negligible effects"},
      {"measurement": "IFN-γ mediated growth suppression", "setting": "[13]; 5 days, LDH activity (FIG. 32C)", "value": "resistant to IFN-γ mediated growth suppression"},
      {"measurement": "IFN-γ induced MHC expression", "setting": "[13]; FIG. 32B", "value": "diminished"}
    ]}
  ]
}
